Measured values published in patent US8227408B2, “Leptin as an anti-amyloidogenic biologic and methods for delaying the onset and reducing Alzheimer's disease-like pathology” (Neurotez, Inc., priority 2005, dated 2012).

Key:
[1] = system: transfected Neuro2a cells; assay: 125I-Aβ degradation and tracer uptake in culture media during treatments; type: cell-based, mouse; conditions: 1 mM 1,10-phenanthroline
Description: Leptin was almost as efficient as methyl-β-cyclodextrin in lowering Aβ (FIG. 4a, 4b).

SY5Y cells = assay: 125I-Aβ uptake by SY5Y cells (apoE-dependent); type: cell-based, human
Experimental: Preparation of ApoE and binding with ^125I-Aβ. ApoE was isolated from the conditioned media of human embryonic kidney (HEK-293) cells stably-transfected with human apoE (having the ε3 allele or the ε4 allele) cDNA (Tezapsidis et al., FASEB J. 17:1322-1324 (2003)). These preparations, while usually poor in lipid, are fully functional for uptake experiments. ApoE then was pre-incubated with ^125I-Aβ overnight at 37° C. (Aβ/ApoE: 1/50 w/w) as described (Tezapsidis et al., FASEB J. 17:1322-1324 (2003)).
Aβ-uptake by SY5Y cells. Human ^125I-Aβ (iodinated at Tyr-10, Amersham Biosciences, IM 294) uptake was measured following addition of 0.1 nM ^125I-Aβ40 (SEQ ID NO: 4) to confluent SY5Y cells (60,000 cpm/ml) in the presence or absence of 100 ng/ml or 400 ng/ml leptin also included in a 24 h pre-incubation period. ^125I-Aβ was either added alone or was previously incubated with apoε3. In controls, Receptor Associated Protein (“RAP”, 1 μM) was added together with Aβ or the Aβ/apoE complex. RAP is an antagonist of a number of lipoprotein receptors (LaDu et al., Neurochem Int. 39:427-34 (2001)). After 24 h, the media were collected and subjected to scintillation counting for γ-Iradiation (Kang et al., 2000. J Clin Invest. 106:1159-66 (2000)). The amount of radioactivity was measured in both the trichloroacetic acid (10%) TCA pellets (representing intact Aβ) and the corresponding supernatants (representing degraded Aβ). 96.5±8.2% (mean±s.e.m., n=4 experiments, triplicate determinations) of the radioactivity found in the medium could be recovered in the TCA pellet and represented intact or oligomeric Aβ (not shown), when Aβ was pre-incubated with apoE.
The amount of TCA-precipitable radioactivity in the soluble fraction of cell lysates was compared to that in the total lysates, the ratio of which was typically about 0.8 to about 0.9 (not shown), to further verify that radioactivity was reduced in the media as a reflection of Aβ uptake by the cells, rather than due to non-specific binding to the extracellular surface of membranes or oligomerization/aggregation of Aβ.
In panel (a), Aβ uptake was measured in SY5Y cells following their treatment at 0 ng/ml, 100 ng/ml or 400 ng/ml leptin. Uptake also was measured in cells previously transfected with antisense DNA for PS1 as described (Tezapsidis et al., FASEB J. 17:1322-1324(2003)) (black). Uptake is expressed as the percentage of that observed with Aβ pre-incubated with apoε3 (medium gray) in the absence of leptin (first set of columns). […] Leptin induced a dose-dependent increase in Aβ uptake with a preference for apoε3 (medium gray) over apoε4 (light gray). In panel (b), SY5Y cells were pre-treated with […] cholesterol (+Chol) or normal medium (−Chol). Then Aβ uptake was measured following its preincubation with apoε3 (ε3) or apoε4 (ε4) in the absence (black) or the presence (gray) of about 400 ng/ml leptin. Cells were more resistant to taking-up Aβ when loaded with cholesterol. […] In panel (c), SY5Y cells were transiently transfected with SREBP-1 or SREBP-2 cDNA or an empty vector (Control). Then Aβ was measured in the medium by ELISAs (Figueiredo-Pereira et al., J Neurochem. 72:1417-22 (1999)) following treatment with (+) or without (−) leptin. […] In panel (d), Aβ uptake was measured in SY5Y cells prepared as in panel (c). Uptake was performed using Aβ/apoε3 complexes.

neurons = assay: Leptin immunostaining of neurons treated with cholesterol; type: cell-based, rat; conditions: neurons, 0, 5 or 10 μM cholesterol, 5 h
Experimental: (§1) Leptin was detected using a rabbit polyclonal antibody raised against mouse leptin, corss-reacting with human leptin (obtained from Dr. A. F. Parlow, Harbor-UCLA, CA). Immunofluorescent confocal microscopy was performed on 2% paraformaldehyde-fixed primary neural cells. Filipin staining was performed as described (Feng et al., Nat Cell Biol. 5:781-92 (2003)).
(§2) Neural cultures from ε15 rat cerebral cortex were processed for enrichment of neurons (a-d) or astrocytes (e-h) as described (Takeshima et al., J. Neurosci. Methods 67: 27-41 (1996)). After about 7 days to about 10 days in culture, cultures were treated for about 5 h with about 10 μg/ml cholesterol (b, f) or about 400 ng/ml leptin plus cholesterol (c, g) or leptin alone (d, h). Controls (a, e) were treated with culture media alone. Filipin staining was performed as described (Feng et al., Nat. Cell Biol. 5: 781-92 (2003)). Neurons (i-k) and astrocytes (l-n) prepared as above were treated with 0 μM (i, l), 5 μM (j, m) or 10 μM cholesterol (k, n) for 5 h. Immunostaining was performed for leptin (A.F.Parlow, Harbor-UCLA, CA).

astrocytes = assay: Leptin immunostaining of astrocytes treated with cholesterol; type: cell-based, rat; conditions: astrocytes, 0, 5 or 10 μM cholesterol, 5 h
Experimental: as §1, §2

[2] = system: Neuro2a cells stably transfected with hyg-sa134 (SEAP-APP); assay: Aβ production by Neuro2a cells stably transfected with hyg-sa134 (total Aβ in media, sandwich ELISA); type: cell-based, mouse; conditions: 5 h; about 400 ng/ml leptin alone or 10 μM water-soluble cholesterol alone; FIG. 4b
β-secretase = assay: C99/C83 accumulation in SY5Y cells in presence of γ-secretase inhibitors (Western blot); type: cell-based, human; conditions: 5 h, with L-685,458 (100 nM) or Z-VL-CHO (100 μM); 10 μM cholesterol or 400 ng/ml leptin alone

Compound | tracer's uptake by the cells [1] | Aβ degradation during the uptake (SY5Y cells; absence of apoE) | levels of leptin-like immunoreactivity (neurons) | levels of leptin-like immunoreactivity (astrocytes) | levels of Aβ detected in the media (percentage of corresponding controls) [2] [%] | apoε3-Aβ taken up compared to controls (SY5Y cells; SY5Y cells preloaded with cholesterol/CDX, without leptin, FIG. 5b) [%] | C99 level (β-secretase)
c1cnc2c(c1)ccc1cccnc12 [1,10-phenanthroline] | did not cause any significant difference | abolished Aβ degradation |  |  |  |  | 
CC(C)CCC[C@@H](C)[C@H]1CC[C@H]2[C@@H]3CC=C4C[C@@H](O)CC[C@]4(C)[C@H]3CC[C@]12C [cholesterol] |  |  | enhanced | enhanced | 205±6 | 22±6 | increase in C99
